{"source": "patent US8541216B2", "about": "(priority 2009, dated 2013)", "tested_on": "beet armyworm eggs", "experiment": "beet armyworm egg bioassay of separated, semipurified dunaimycins (96-well artificial diet)", "type": "in vivo, beet armyworm (Spodoptera exigua)", "procedure": "The separated, identified dunaimycins were then tested for bioactivity against beet armyworm eggs as follows. Stock solutions were provided as 15% aqueous ethanol solution of various semipurified dunaimycins, either alone or in combinations. For reference purposes, Javelin WDG (Bacillus thuringiensis subspecies Kurstaki; ThermoTrilogy Inc) was weighed out and diluted to give a 1,000 ppm stock solution (positive chemical standard). These stock solutions were transferred to a deep well microtitre plate: 1.4 ml of each stock solutions were placed in the 2 ml well across the top row (A wells 1-12). A Packard Multiprobe II liquid handling system (Perkin Elmer Inc.) then carried out a dilution program, first adding 700 μls of DI H2O to the remaining 84 wells (B-H 1-12). The four tip arm then performed a sequence of aspiration and dispensing steps to mix the samples and then transferred them into an adjoining well to give eight 50% serially diluted samples containing 700 μl per well. The robot then used a transfer program to pipette all of the serial diluted samples to labeled 96 well plates. Aliquots containing 40 μl of each dilution were dispensed into six wells across a microtitre plate containing ˜200 μl of artificial diet/well. […] Mortality was recorded as the number dead over the number treated and expressed as control corrected percent mortality. […]"}
{"smiles": "CCC(O)CC1OC2(CCC1C)CC1OC(=O)/C=C\\C(C)C(O)C(C)C(O)CC(O)C(C)CCCCC/C=C/C(CC(C)C)C(=O)CC(O2)C1C", "note": "(centres unmarked) [Dunaimycin A1]", "values": [{"measurement": "LD50 (ppm) BAW assay", "setting": "Tested alone", "result": "Inactive up to 1000 ppm"}, {"measurement": "insecticidal activity (active or inactive dunaimycin)", "setting": "classification of purified species, inactive up to about 1000 ppm", "result": "Inactive"}]}
